# Reference: patent US20200261398A1, “METHOD FOR FIRST-LINE TREATMENT OF ROSACEA” (Sol-Gel Technologies Ltd., priority 2019, published 2020)
# Assays:
# [1] = tested on: patients afflicted with papulopustular rosacea; assay: Investigator Global Assessment (IGA) success, 12-week vehicle-controlled study of E-BPO 5% cream; assay type: in vivo, human
# Description: (§1) A multi-center, double-blind, randomized, vehicle-controlled, dose-range study of encapsulated 5% benzoyl peroxide (E-BPO) Cream and vehicle cream was performed to assess the efficacy and safety of E-BPO compared to vehicle. Study duration was 12 weeks and included approximately 350 male and female patients afflicted with papulopustular rosacea. Patients were at least 18 years of age, and met the inclusion/exclusion criteria described herein.
# Patients were randomized in a 2:1 ratio to the study product or vehicle treatment group, respectively. […]
# Patients were admitted into the study after meeting all inclusion/exclusion criteria, including a clinical diagnosis of rosacea and after written informed consent has been obtained. […] At each visit, a 5-point IGA scale of rosacea; rosacea erythema, and telangiectasia; and inflammatory (papules, pustules) lesion counts were performed and recorded.
# (§2) The first application of the test product was applied at the investigational site at the end of the Baseline visit (Day 0) under the supervision and instruction of the designated investigational site staff. […] The evaluator also assessed local application site irritation (dryness, scaling, pruritus, stinging and burning) at Baseline and Weeks 2, 4, 8 and 12 (end of study). […]
# [2] = tested on: patients afflicted with papulopustular rosacea; assay: Inflammatory lesion (papules, pustules) count, 12-week vehicle-controlled study of E-BPO 5% cream; assay type: in vivo, human
# Description: as §1
# Patients were randomized in a 2:1 ratio to the study product or vehicle treatment group, respectively. Patients applied the study product once daily for 12 weeks on the face (chin, left cheek, right cheek, nose, left forehead and right forehead) in a thin layer to provide even distribution, and avoid the eyes, lips, inside the nose, mouth and all mucous membranes.
# Patients were admitted into the study after meeting all inclusion/exclusion criteria, including a clinical diagnosis of rosacea and after written informed consent has been obtained. Subjects with severe rosacea who are appropriate for systemic treatment need to be counseled regarding their treatment options by the Principal Investigator. At each visit, a 5-point IGA scale of rosacea; rosacea erythema, and telangiectasia; and inflammatory (papules, pustules) lesion counts were performed and recorded.
# The first application of the test product was applied at the investigational site at the end of the Baseline visit (Day 0) under the supervision and instruction of the designated investigational site staff. The investigator performed the Investigator Global Assessment (IGA) and inflammatory lesion (papules and pustules) counts at Screening, Baseline, and Weeks 4, 8, and 12 (end of study) and erythema and telangiectasia assessments at Baseline, and Weeks 4, 8, and 12 (end of study). The evaluator also assessed local application site irritation (dryness, scaling, pruritus, stinging and burning) at Baseline and Weeks 2, 4, 8 and 12 (end of study). At selected investigational site(s), standardized photography of facial rosacea also was performed at Baseline and Week 8 and 12 (end of study).
# The absolute change (primary measure of success) and percent change (secondary measure of success) from baseline of inflammatory lesions was derived for each patient at Weeks 2, 4, 8 and 12. The IGA was recorded for each patient at Baseline, Weeks 2, 4, 8 and 12. Weeks 2, 4, 8 and 12 with a patient were considered a success for those visits if the IGA was at least 2 grades less than baseline and are Clear or Almost Clear. Data from two sets of experiments—Drug 01+Vehicle 01 and Drug 02+Vehicle 02—are included herewith for each measurement
# The proportions of subjects with a secondary measure of success (defined as change in the mean inflammatory lesion count from Baseline to Weeks 2, 4, 8 and 12) are shown in Tables 2A, 2B, 3A and 3B, and FIGS. 2 and 3.
# [3] = tested on: patients afflicted with papulopustular rosacea; assay: Cutaneous Safety Assessment (dryness, scaling) and Local Tolerability Assessment (itching, burning/stinging), 12-week study of E-BPO 5% cream; assay type: in vivo, human; conditions: studies described herein
# Description: Safety was assessed at all visits, and will include monitoring of local adverse experiences, Investigator Cutaneous Safety Assessment rating of dryness and scaling and Local Tolerability Assessment rating of itching and burning/stinging on a scale ranging from 0 (None) to 3 (Severe); patients complete a Patient Reported Outcomes (PRO) questionnaire at Visit 2, 3, 4, 5 and 6 and Rosacea Quality of Life Questionnaire (RosaQoL) at Baseline and Visit 6 or at early termination. Standardized photography of facial rosacea at Visit 2, 3, 4, 5 and 6 was performed at select site(s).
# In addition to IGA, at each visit, the following safety measures were recorded: monitoring for any AE (adverse effects) including local and systemic; investigator Cutaneous Safety Assessment rating of erythema, dryness and scaling and Local Tolerability Assessments rating of itching and burning/stinging on a scale ranging from 0 (None) to 3 (Severe).
# as §2
# rosacea = conditions: BPO as the sole active agent (Gul 2008); cited from earlier work
# [4] = after at least 12 weeks of treatment
smiles,measurement,setting,value
"O=C(OOC(=O)c1ccccc1)c1ccccc1 [BPO, Benzoyl peroxide]",success in IGA,[1]; after 2 weeks of BPO-treatment,about 10%
same,success in IGA,[1]; after only 4 weeks of treatment,about 25%
same,decrease in inflammatory lesions,[2]; [4],over 69%
same,decrease in inflammatory lesions relative to effect of vehicle cream,[2]; [4],more than 1.5 ×
same,"decrease in inflammatory lesions, on average",[2]; after only 2 weeks of treatment,about 40%
same,decrease in inflammatory lesions,[2]; in 4 weeks,over 58%
same,decrease in inflammatory lesions,[2]; in 8 weeks,about 70%
same,percentage of patients reporting no subcutaneous reactions compared with vehicle,[3],"comparable, and for some conditions, surprisingly, higher"
same,response of lesions,rosacea,unresponsive
